Experimental data reported in PubChem BioAssay (NCI).
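Protocol summary: plate cells (96-well), add compound at 5 concentrations, incubate 48 h, interpolate endpoints linearly. The concentration for 50% growth inhibition is given as GI50. TGI is the concentration that stops growth completely.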

Tests used:
Assay in all cases: inhibition of tumour cell growth, NCI panel, 48 h
M14 melanoma = system: M14 melanoma
SK-MEL-2 melanoma = system: SK-MEL-2 melanoma
CCRF-CEM leukemia = system: CCRF-CEM leukemia
HCT-116 colon = system: HCT-116 colon
HL-60(TB) leukemia = system: HL-60(TB) leukemia
SK-MEL-5 melanoma = system: SK-MEL-5 melanoma
IGROV1 ovarian = system: IGROV1 ovarian
MDA-MB-435 = system: MDA-MB-435
NCI-H226 lung = system: NCI-H226 lung
SNB-75 CNS = system: SNB-75 CNS

| Compound | TGI (M14 melanoma) [µM] | TGI (SK-MEL-2 melanoma) [µM] | TGI (CCRF-CEM leukemia) [µM] | TGI (HCT-116 colon) [µM] | TGI (HL-60(TB) leukemia) [µM] | TGI (SK-MEL-5 melanoma) [µM] | TGI (IGROV1 ovarian) [µM] | TGI (MDA-MB-435) [µM] | TGI (NCI-H226 lung) [µM] | TGI (SNB-75 CNS) [µM] | GI50 (M14 melanoma) [µM] | GI50 (SK-MEL-2 melanoma) [µM] | GI50 (CCRF-CEM leukemia) [µM] | GI50 (NCI-H226 lung) [µM] | GI50 (HL-60(TB) leukemia) [µM] | GI50 (SK-MEL-5 melanoma) [µM] | GI50 (IGROV1 ovarian) [µM] | GI50 (SNB-75 CNS) [µM] | GI50 (MDA-MB-435) [µM] | GI50 (HCT-116 colon) [µM] |
| --- | --- | --- | --- | --- | --- | --- | --- | --- | --- | --- | --- | --- | --- | --- | --- | --- | --- | --- | --- | --- |
| N#CC1=C(N)Nc2nc3ccccc3n2C1c1ccccc1 (centres undefined) | > 100 | > 100 | > 100 | > 100 | > 100 | > 100 | > 100 | > 100 |  |  |  |  |  |  |  |  |  |  |  |  |
| S=C1NN=C2C(=C3CCCC4C5CCCCC5N2C34)N1 (centres undefined) | > 100 |  | > 100 |  | > 100 | > 100 | > 100 |  | > 100 |  |  |  |  |  |  |  |  |  |  |  |
| COc1ccc(/C=C/[N+](=O)[O-])cc1 | 6.48 | 52.7 |  | > 100 | 8.82 | 30.2 | 11.3 | 4.21 | 17.4 | > 100 |  |  |  |  |  |  |  |  |  |  |
| C/C(=C\COP(=O)(O)OP(=O)(O)O)CC/C=C(\C)CNc1ccc([N+](=O)[O-])cc1 | > 100 | > 100 | > 100 | > 100 | > 100 | > 100 | > 100 | > 100 | > 100 | > 100 |  |  |  |  |  |  |  |  |  |  |
| C[C@H](CCC1=NCCN1)[C@H]1CC[C@H]2[C@@H]3CC[C@@H]4C[C@H](O)CC[C@]4(C)[C@H]3CC[C@]12C | > 22.6 | 21.3 | 14.2 | > 36.9 |  | 3.45 | 25.4 | 22 | 28.2 | 22 |  |  |  |  |  |  |  |  |  |  |
| NC(=O)c1cc(C2OC(CO)C(O)C2O)nn1-c1ccc([N+](=O)[O-])cc1 (centres undefined) | > 100 | > 100 | > 100 | > 100 | > 100 | > 100 | > 100 |  | > 100 | > 100 |  |  |  |  |  |  |  |  |  |  |
| C#C[C@@]1(O)[C@@H](CO)O[C@@H](n2cc(F)c3c(N)ncnc32)[C@@H]1O | 2.39 | 2.87 | > 100 |  | 3.53 | 1.33 | 1.42 | 3.26 | 2.63 | 2.32 | 0.481 | 0.446 | 0.338 | 0.521 | 0.436 | 0.267 | 0.324 | 1.03 | 0.416 |  |
| COC(=O)c1nc2c3c(cccc3c1C(=O)OC)Nc1ccccc1-2 | > 100 | 71.8 | > 100 | > 100 | > 100 | 56.5 | > 100 | > 100 | > 100 | > 100 |  |  |  |  |  |  |  |  |  |  |
| O=C(O)C(Br)Cc1ccc2c(c1)OCO2 (centres undefined) | > 100 | > 100 | > 100 | > 100 | > 100 | > 100 | > 100 |  |  | > 100 |  |  |  |  |  |  |  |  |  |  |
| COc1ccc(/C(Cl)=C(\C=O)c2ccc(Cl)c(Cl)c2)cc1OC | 26.3 | 15 | 8.72 | 15.2 | 6.67 | 26.6 |  |  | 18.6 | 0.938 |  |  |  |  |  |  |  |  |  |  |
| COc1cc2c3c(c4cc(OC)c(OC)cc4c2cc1OC)[C@H](O)[C@@H]1CCCN1C3 | 2.06 | 0.234 | > 100 | 7.64 | 3.49 | 1.11 |  | 2.86 | 3.64 | 0.252 |  |  |  |  |  |  |  |  |  |  |
| CSc1sc(=S)sc1SC |  | > 31.6 | > 100 | > 100 | > 31.6 | > 100 | > 100 |  | > 100 | > 90 |  |  |  |  |  |  |  |  |  |  |
| COc1cc2c3c(n(C4CCNCC4)c(=O)c2cc1OC)-c1cc2c(cc1C3=O)OCO2 |  | > 100 | 2.25 |  | 1.49 | 1.46 |  | 2.6 | 2.94 |  |  | 20.1 | 0.287 | 0.635 | 0.364 | 0.322 |  |  | 1.19 |  |
| Nc1nncs1 | > 5000 | > 5000 | > 5000 | > 5000 | > 5000 | > 5000 | > 4680 | > 5000 | > 5000 | > 3710 |  |  |  |  |  |  |  |  |  |  |
| COc1ccc2c(c1)/C(=C\c1cccc(/C=C3/C(=O)Nc4ccc(OC)cc43)n1)C(=O)N2 | 3.22 | 15.5 | > 38 | 1.29 | 2.05 | 2.24 | > 100 | 6.81 | 4.16 | > 100 |  |  |  | 1.54 |  |  | 2.2 |  |  |  |
| CCOn1cc(C2=C(c3c[nH]c4ccccc34)C(=O)NC2=O)c2ccccc21 | 17.9 | 25.8 | 19 | 4.03 |  | < 0.01 | > 61.6 | < 0.0142 | 27.4 | 34.8 | 0.0542 | 12.2 | 0.0672 | 1.01 | < 0.0176 | < 0.01 | 15.8 | < 0.0288 | < 0.01 | < 0.0217 |
| COC1/C=C\OC2(C)Oc3c(C)c(O)c4c(O)c(c(CN(C)C)c(O)c4c3C2=O)NC(=O)/C(C)=C\C=C/C(C)C(O)C(C)C(O)C(C)C(OC(C)=O)C1C (centres undefined) | 42.1 | 42.5 |  | 37.9 | 50.8 | 36.8 | > 100 | 78.6 | > 100 | > 100 |  |  |  |  |  |  |  |  |  |  |
| O=C1OC2(c3ccc(O)cc3Oc3cc(O)ccc32)c2c1c(-c1ccccc1)c(-c1ccccc1)c(-c1ccccc1)c2-c1ccccc1 | 34.4 | 36.3 |  | 57.3 | 39.4 | 54 | 37.4 | 35.1 | 87.3 | 41 |  |  |  |  |  |  |  |  |  |  |
| CCCCCCCCCCCCCCCCOCCCOP(=O)(O)C1CCCN(O)C1=O (centres undefined) |  | 24.6 | 30 |  | 10.3 | 14.7 | 4.77 | > 100 | 14.3 | 15 |  | 5.95 | 0.553 | 2.1 | 1.31 | 3.74 | 0.609 | 2.13 | 3.13 |  |
| CC1(C)N=C(N)N=C(N)N1c1cccc(OCc2cccc([N+](=O)[O-])c2)c1 | > 100 | > 100 | > 100 | > 100 | 58.2 | > 88.7 | > 100 | > 100 | > 100 | > 100 |  |  |  |  |  |  |  |  |  |  |
